The text below walks through data of patent US20080269251A1, “Substituted Pyrazinone Derivatives as Alpha2C-Adrenoreceptor Antagonists” (priority 2005, published 2008).

The target in assay [1] is T1, human adrenergic-α2A receptor (Homo sapiens, UniProt P08913).
T1 construct: expressed in transfected cells; host or cells: CHO cells, stably transfected; membrane preparation
T1 sequence (P08913 1-465): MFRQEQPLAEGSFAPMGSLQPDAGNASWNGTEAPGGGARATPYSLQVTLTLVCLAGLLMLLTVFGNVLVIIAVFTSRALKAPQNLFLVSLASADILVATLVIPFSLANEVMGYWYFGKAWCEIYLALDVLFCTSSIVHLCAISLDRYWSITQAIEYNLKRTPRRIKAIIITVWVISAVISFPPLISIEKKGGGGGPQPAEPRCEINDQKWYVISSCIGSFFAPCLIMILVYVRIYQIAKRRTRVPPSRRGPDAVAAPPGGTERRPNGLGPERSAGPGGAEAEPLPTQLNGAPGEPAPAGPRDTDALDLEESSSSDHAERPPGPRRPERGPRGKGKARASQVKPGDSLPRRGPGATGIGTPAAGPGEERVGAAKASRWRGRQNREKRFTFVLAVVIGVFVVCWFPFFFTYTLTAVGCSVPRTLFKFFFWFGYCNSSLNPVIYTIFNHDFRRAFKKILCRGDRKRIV
Description: Radioligand binding experiment for hα2A-adrenergic receptor ([3H]raulwolscine). Conditions: [3H]raulwolscine 1 nM, 60 minutes at 25° C.; for IC50: read-out: h-α2A pIC50 (converted). Here is the method:
(§1) The interaction of the compounds of Formula (I) with α2C-adrenoceptor receptors was assessed in in vitro radioligand binding experiments. In general, a low concentration of a radioligand with a high binding affinity for a particular receptor or transporter is incubated with a sample of a tissue preparation enriched in a particular receptor or transporter or with a preparation of cells expressing cloned human receptors in a buffered medium. During the incubation, the radioligand binds to the receptor or transporter. When equilibrium of binding is reached, the receptor bound radioactivity is separated from the non-bound radioactivity, and the receptor- or transporter-bound activity is counted. The interaction of the test compounds with the receptor is assessed in competition binding experiments. Various concentrations of the test compound are added to the incubation mixture containing the receptor- or transporter preparation and the radioligand. The test compound in proportion to its binding affinity and its concentration inhibits binding of the radioligand. The radioligand used for […] receptor binding was [^3H]-raulwolscine.
(§2) CHO cells, stabile transfected with human adrenergic-α2A, -α2B or α2C receptor cDNA, were cultured in Dulbecco's Modified Eagle's Medium (DMEM)/Nutrient mixture Ham's F12 (ratio 1:1)(Gibco, Gent-Belgium) supplemented with 10% heat inactivated fetal calf serum (Life Technologies, Merelbeke-Belgium) and antibiotics (100 IU/ml penicillin G, 100 μg/ml streptomycin sulphate, 110 μg/ml pyruvic acid and 100 μg/ml L-glutamine). One day before collection, cells were induced with 5 mM sodiumbutyrate. Upon 80-90% of confluence, cells were scraped in phosphate buffered saline without Ca^2+ and Mg^2+ and collected by centrifugation at 1500×g for 10 minutes. The cells were homogenised in Tris-HCl 50 mM using an Ultraturrax homogenizer and centrifuged for 10 minutes at 23,500×g. The pellet was washed once by resuspension and rehomogenization and the final pellet was resuspended in Tris-HCl, divided in 1 ml aliquots and stored at −70° C.
(§3) Membranes were thawed and re-homogenized in incubation buffer (glycylglycine 25 mM, pH 8.0). In a total volume of 500 μl, 2-10 μg protein was incubated with [^3H]raulwolscine (NET-722) (New England Nuclear, USA) (1 nM final concentration) with or without competitor for 60 minutes at 25° C. followed by rapid filtration over GF/B filter using a Filtermate196 harvester (Packard, Meriden, Conn.). Filters were rinsed extensively with ice-cold rinsing buffer (Tris-HCl 50 mM pH 7.4). Filter-bound radioactivity was determined by scintillation counting in a Topcount (Packard, Meriden, Conn.) and results were expressed as counts per minute (cpm). Non-specific binding was determined in the presence of 1 μM oxymetazoline for hα2A- and hα2B receptors and 1 μM spiroxatrine for hα2C receptors.
(§4) Data from assays in the presence of compound were calculated as a percentage of total binding measured in the absence of test compound. Inhibition curves, plotting percent of total binding versus the log value of the concentration of the test compound, were automatically generated, and sigmoidal inhibition curves were fitted using non-linear regression. The pIC50 values of test compounds were derived from individual curves.

Another assay has as its target T2, 5HT-transporter (Homo sapiens, UniProt P31645).
T2 construct: Human platelet membranes (Oceanix Biosciences Corporation, Hanover, Md., USA) were thawed; tissue Oceanix Biosciences Corporation, Hanover, Md., USA; host or cells: human platelet membranes
Kind of assay: Binding experiment for the 5HT-transporter ([3H]paroxetine, human platelet membranes). As to conditions: [3H]paroxetine 0.5 nM, 60 min at 25° C.; for IC50: read-out: h-5HTT pIC50 (converted). Here is the method:
as §1
Human platelet membranes (Oceanix Biosciences Corporation, Hanover, Md., USA) were thawed, diluted in buffer (Tris-HCl 50 mM, 120 mM NaCl and 5 mM KCl) and quickly (max 3 s) homogenised with an Ultraturrax homogenizer. […] Incubation was stopped by rapid filtration of the incubation mixture over GF/B filters, pre-wetted with 0.1% polyethyleneamine, using a Filtermate196 harvester (Packard, Meriden, Conn.). Filters were rinsed extensively with ice-cold buffer and radioactivity on the filters was counted in a Topcount liquid scintillation counter (Packard, Meriden, Conn.). Data were expressed as cpm. Imipramine (at 1 μM final concentration) was used to determine the non-specific binding.
as §4

In assay [2] the target is T3, human adrenergic-α2C receptor (Homo sapiens, UniProt P18825).
T3 construct: expressed in transfected cells; host or cells: CHO cells, stably transfected; membrane preparation
T3 sequence (P18825 1-462): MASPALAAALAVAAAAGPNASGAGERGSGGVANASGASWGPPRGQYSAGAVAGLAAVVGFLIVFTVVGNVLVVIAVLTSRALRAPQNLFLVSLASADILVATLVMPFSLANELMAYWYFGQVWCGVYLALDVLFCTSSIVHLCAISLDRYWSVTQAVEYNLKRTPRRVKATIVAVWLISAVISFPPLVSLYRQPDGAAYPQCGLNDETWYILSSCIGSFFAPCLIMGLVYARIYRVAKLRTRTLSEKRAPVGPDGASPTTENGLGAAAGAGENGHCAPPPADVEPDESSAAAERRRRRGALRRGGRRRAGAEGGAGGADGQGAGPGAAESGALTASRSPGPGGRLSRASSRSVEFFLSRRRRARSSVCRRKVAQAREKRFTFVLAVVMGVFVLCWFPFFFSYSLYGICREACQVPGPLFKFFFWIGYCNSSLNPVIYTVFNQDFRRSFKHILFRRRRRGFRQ
Kind of assay: Radioligand binding experiment for hα2C-adrenoceptor ([3H]raulwolscine). Conditions: [3H]raulwolscine 1 nM, 60 minutes at 25° C.; for IC50: read-out: h-α2C pIC50 (converted). As to the method: as §1, §2, §3, §4

T2 sequence (P31645 whole entry): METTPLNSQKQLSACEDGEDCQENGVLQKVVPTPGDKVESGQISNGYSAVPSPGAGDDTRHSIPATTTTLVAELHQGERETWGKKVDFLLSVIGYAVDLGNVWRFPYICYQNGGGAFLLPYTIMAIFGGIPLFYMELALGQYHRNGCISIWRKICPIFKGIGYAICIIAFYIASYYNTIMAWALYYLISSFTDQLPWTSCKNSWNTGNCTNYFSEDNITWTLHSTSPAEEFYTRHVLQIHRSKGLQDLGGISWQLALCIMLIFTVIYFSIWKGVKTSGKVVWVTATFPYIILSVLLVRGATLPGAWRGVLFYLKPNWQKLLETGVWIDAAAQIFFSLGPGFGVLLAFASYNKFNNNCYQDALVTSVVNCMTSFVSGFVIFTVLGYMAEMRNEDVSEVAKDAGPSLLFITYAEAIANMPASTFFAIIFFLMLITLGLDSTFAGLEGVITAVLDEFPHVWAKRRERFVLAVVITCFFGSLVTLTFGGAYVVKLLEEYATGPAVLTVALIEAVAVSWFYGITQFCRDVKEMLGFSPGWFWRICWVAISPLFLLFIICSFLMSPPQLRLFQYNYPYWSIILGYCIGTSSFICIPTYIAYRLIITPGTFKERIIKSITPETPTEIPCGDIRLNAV

As for `CCCC(=O)N(Cc1ccc(-n2ccnc(NC3CCN(Cc4ccc5ccccc5c4)CC3)c2=O)cc1)C(=O)CCC` [1-29], the IC50 was 398 nM in assay [1], 20 nM at 5HT-transporter and 39.8 nM in assay [2].
On the same counts, the results for `COCCC(=O)NCc1ccc(-n2ccnc(NC3CCN(Cc4ccc5ccccc5c4)CC3)c2=O)cc1` [1-30] are 316 nM, 15.8 nM and 31.6 nM.
`C=CCCC(=O)NCc1ccc(-n2ccnc(NC3CCN(Cc4ccc5ccccc5c4)CC3)c2=O)cc1` [1-31]: the “h-α2A pIC50” value in assay [1] is 6.5. Moreover, the “h-5HTT pIC50” value at 5HT-transporter is listed as 8.1. Besides, in assay [2], the “h-α2C pIC50” value stood at 7.5.
For `CC(C)(C)OC(=O)NCCCn1ccnc(NC2CCN(Cc3ccc4ccccc4c3)CC2)c1=O` [1-32], the IC50 in assay [1] is 200 nM; on 5HT-transporter it was 31.6 nM; in assay [2], 12.6 nM.
Regarding `CC(C)(C)OC(=O)NCc1ccc(-n2ccnc(NC3CCN(Cc4ccc5ccccc5c4)CC3)c2=O)cc1` [1-33], the IC50 in assay [1] is 501 nM; on 5HT-transporter, 25.1 nM; in assay [2], 79.4 nM.
For `CC(C)(C)OC(=O)NCc1ccc(Cn2ccnc(NC3CCN(Cc4ccc5ccccc5c4)CC3)c2=O)cc1` [1-34], the values for the IC50 (in assay [1]; at 5HT-transporter; in assay [2]) were 251 nM, 79.4 nM and 100 nM, respectively.
With `CN(CCCn1ccnc(NC2CCN(Cc3ccc4ccccc4c3)CC2)c1=O)C(=O)OC(C)(C)C` [1-35], the IC50 in assay [1] was 316 nM; on 5HT-transporter, 39.8 nM; in assay [2], 25.1 nM.
Turning to `COC(=O)CN(C)Cc1ccc(-n2ccnc(NC3CCN(Cc4ccc5ccccc5c4)CC3)c2=O)cc1` [1-36], the IC50 in assay [1] is 501 nM; on 5HT-transporter, 158 nM; in assay [2] it was 50.1 nM.
In the case of `COC(=O)CCCC(=O)NCc1ccc(-n2ccnc(NC3CCN(Cc4ccc5ccccc5c4)CC3)c2=O)cc1` [1-37], the results for the IC50 (in assay [1]; at 5HT-transporter; in assay [2]) were 631 nM, 12.6 nM and 39.8 nM, respectively.
The corresponding values for `C#CCN(C)C(=O)Cn1ccnc(NC2CCN(Cc3ccc4ccccc4c3)CC2)c1=O` [1-38] are 398 nM, 1580 nM and 63.1 nM.
On the same counts, the results for `CN(C)CCN(C)Cc1ccc(-n2ccnc(NC3CCN(Cc4ccc5ccccc5c4)CC3)c2=O)cc1` [1-39] are 79.4 nM, 63.1 nM and 15.8 nM.
On the same counts, the results for `CCCNC(=O)NCc1ccc(-n2ccnc(NC3CCN(Cc4ccc5ccccc5c4)CC3)c2=O)cc1` [1-40] are 1260 nM, 50.1 nM and 100 nM.
Turning to `O=C(NCc1ccc(-n2ccnc(NC3CCN(Cc4ccc5ccccc5c4)CC3)c2=O)cc1)NCC1CCCCC1` [1-41], in assay [1], the “h-α2A pIC50” value turned out to be 6.2. The “h-5HTT pIC50” value at 5HT-transporter turned out to be 7.2. Further, the “h-α2C pIC50” value in assay [2] came out at 7.2.
Take `O=C(Cc1ccccc1)NCc1ccc(-n2ccnc(NC3CCN(Cc4ccc5ccccc5c4)CC3)c2=O)cc1` [1-42]: the IC50 in assay [1] is 501 nM; at 5HT-transporter it was 5.01 nM; in assay [2], 31.6 nM.
The corresponding values for `O=C(CCc1ccccc1)NCc1ccc(-n2ccnc(NC3CCN(Cc4ccc5ccccc5c4)CC3)c2=O)cc1` [1-43] are 251 nM, 6.31 nM and 39.8 nM.
The corresponding values for `CN(C)CCNC(=O)NCc1ccc(-n2ccnc(NC3CCN(Cc4ccc5ccccc5c4)CC3)c2=O)cc1` [1-44] are 63.1 nM, 7.94 nM and 12.6 nM.
The corresponding values for `COCCNC(=O)NCc1ccc(-n2ccnc(NC3CCN(Cc4ccc5ccccc5c4)CC3)c2=O)cc1` [1-45] are 398 nM, 25.1 nM and 31.6 nM.
On to `COCCCNC(=O)NCc1ccc(-n2ccnc(NC3CCN(Cc4ccc5ccccc5c4)CC3)c2=O)cc1` [1-46], for which the IC50 is 501 nM in assay [1], 63.1 nM at 5HT-transporter and 39.8 nM in assay [2].
With `COC(=O)CCNC(=O)NCc1ccc(-n2ccnc(NC3CCN(Cc4ccc5ccccc5c4)CC3)c2=O)cc1` [1-47], in assay [1], the “h-α2A pIC50” value is listed as 6.3. The “h-5HTT pIC50” value on 5HT-transporter is 7.6. In assay [2], the “h-α2C pIC50” value worked out at 7.5.
With `O=C(NCc1ccccc1)NCc1ccc(-n2ccnc(NC3CCN(Cc4ccc5ccccc5c4)CC3)c2=O)cc1` [1-48], the IC50 in assay [1] was 316 nM; on 5HT-transporter, 10 nM; in assay [2], 39.8 nM.
With `Cc1ccc(CNC(=O)NCc2ccc(-n3ccnc(NC4CCN(Cc5ccc6ccccc6c5)CC4)c3=O)cc2)cc1F` [1-49], the IC50 in assay [1] was 501 nM; at 5HT-transporter, 39.8 nM; in assay [2] it was 39.8 nM.
Turning to `O=C(NCc1ccc(-n2ccnc(NC3CCN(Cc4ccc5ccccc5c4)CC3)c2=O)cc1)NCc1cc(F)cc(C(F)(F)F)c1` [1-50], the IC50 in assay [1] was 1260 nM; at 5HT-transporter it was 63.1 nM; in assay [2], 200 nM.
With `O=C(NCCCc1ccccc1)NCc1ccc(-n2ccnc(NC3CCN(Cc4ccc5ccccc5c4)CC3)c2=O)cc1` [1-51], the “h-α2A pIC50” value in assay [1] was determined as 6.4. In addition, on 5HT-transporter, the “h-5HTT pIC50” value worked out at 7.8. The “h-α2C pIC50” value in assay [2] came to 7.1.
The corresponding values for `O=C(NCc1ccc(-n2ccnc(NC3CCN(Cc4ccc5ccccc5c4)CC3)c2=O)cc1)Nc1ccccc1` [1-52] are 6.3, 8.1 and 7.2.
For the compound `O=C(NCCCn1ccnc(NC2CCN(Cc3ccc4ccccc4c3)CC2)c1=O)Nc1ccccc1` [1-53], the figures for the IC50 (in assay [1]; at 5HT-transporter; in assay [2]) were 631 nM, 7.94 nM and 20 nM, respectively.
